Values belong to the molecule of their own block, whether it stands above or below them.
Assay: photoluminescence quantum yield (fraction); solvent given as SMILES

photoluminescence quantum yield (in ClC(Cl)Cl): 0.96
Structure (SMILES): COc1ccc(-c2oc3cccc4c5c(-c6ccc(OC)cc6)/c(=N/S(=O)(=O)C(F)(F)F)oc6cccc(c2c34)c65)cc1

photoluminescence quantum yield (in ClCCl): 0.035
Structure (SMILES): c1ccc(-c2cc3cc4ccccc4cc3p2-c2ccccc2)cc1 (stereo not given)

photoluminescence quantum yield (in C1CCOC1): 0.0076
Structure (SMILES): O=C1/C(=C2\Nc3cc4ccc5cccc6ccc(c3C2=O)c4c56)Nc2cc3ccc4cccc5ccc(c21)c3c45

photoluminescence quantum yield (in CC#N): 0.041
Structure (SMILES): Cc1ccc2nc3[nH]c(=O)[nH]c(=O)c3nc2c1C

photoluminescence quantum yield (in CC#N): 0.837
Structure (SMILES): N#Cc1nn(-c2cc(F)cc(F)c2)nc1N1CCCC1

photoluminescence quantum yield (in C1CCCCC1): 0.38
photoluminescence quantum yield (in CC#N): 0.16
Structure (SMILES): C[Si](C)(C)[Si](C)(C)c1cccc2cc3ccccc3cc12

photoluminescence quantum yield (in CO): 0.57
photoluminescence quantum yield (in O): 0.33
Structure (SMILES): CC1(C)C2=[N+](CCCCCC(=O)NCCNC(=O)CCCCCN3/C(=C/C=C/C=C/C=C/2)C(C)(C)c2cc(S(=O)(=O)[O-])ccc23)c2ccc(S(=O)(=O)[O-])cc21

photoluminescence quantum yield (in CC#N): 0.34
Structure (SMILES): Oc1ccccc1/C=N/c1cc2nc3ccccc3nc2cc1/N=C/c1ccccc1O

photoluminescence quantum yield (in c1ccccc1): 0.064
Structure (SMILES): CCOC(=O)c1sc2nc(-c3ccc(OC)cc3)c(C)c(C#N)c2c1N

photoluminescence quantum yield (in ClC(Cl)Cl): 0.3
Structure (SMILES): CN(C)c1ccc(-c2ccc(-c3ccc(N(C)C)cc3)c3nc(-c4ccccc4)c(-c4ccccc4)nc23)cc1

photoluminescence quantum yield (in CC#N): 0.9
Structure (SMILES): Fc1nc(F)c(F)c(C#Cc2cc3c(cc2C#Cc2c(F)c(F)nc(F)c2F)OC2(CCCCC2)O3)c1F

photoluminescence quantum yield (in C1CCCCC1): 0.85
photoluminescence quantum yield (in CC#N): 0.45
photoluminescence quantum yield (in ClC(Cl)Cl): 0.68
Structure (SMILES): O=C1Cc2ccc(cc2)CC(=O)Cc2ccc(c3nsnc23)C1

photoluminescence quantum yield (in ClC(Cl)Cl): 0.73
Structure (SMILES): Cc1ccccc1CN(Cc1ccccc1C)c1nc(C#N)c(N(Cc2ccccc2C)Cc2ccccc2C)nc1C#N

The next lines start with the molecule.

Structure (SMILES): N#C/C(=N/Nc1ccc(C#N)cc1)c1nc(-c2ccccc2)cs1
photoluminescence quantum yield (in CC#N): 0
photoluminescence quantum yield (in CCO): 0.0001
photoluminescence quantum yield (in CN(C)C=O): 0
photoluminescence quantum yield (in Cc1ccccc1): 0.0001
photoluminescence quantum yield (in ClCCl): 0.0001

Structure (SMILES): COc1ccc(-c2cnc3nn4ccccc4c3n2)cc1
photoluminescence quantum yield (in C1CCOC1): 0.83

Structure (SMILES): c1ccccc1
photoluminescence quantum yield (in C1CCCCC1): 0.14

Structure (SMILES): CCOC(=O)c1c2c3c(cccc3c3cc4c(cc13)[Si](C)(C)O[Si]4(C)C)N(C)C2=O
photoluminescence quantum yield (in CC#N): 0.51

Structure (SMILES): CC(C)c1cccc(C(C)C)c1N1C(=O)c2cc(Cl)c3c4c(Cl)cc5c6c(cc(Cl)c(c7c(Cl)cc(c2c37)C1=O)c64)C(=O)N(c1c(C(C)C)cccc1C(C)C)C5=O
photoluminescence quantum yield (in Cc1ccccc1): 0.95

Structure (SMILES): c1ccc(-c2ccc(-c3ccccc3)s2)cc1
photoluminescence quantum yield (in C1CCOC1): 0.07

Structure (SMILES): CCCC1=Cc2nc1ccc1[nH]c(cc1CCC)c1nc(c(OCc3ccc(C(=O)O)cc3)cc3[nH]c2cc3CCC)C(CCC)=C1
photoluminescence quantum yield (in Cc1ccccc1): 0.21

Structure (SMILES): CC1(C)c2ccccc2N(c2ccc3c(c2)c2cc(N4c5ccccc5C(C)(C)c5ccccc54)ccc2c2nc(C#N)c(C#N)nc32)c2ccccc21
photoluminescence quantum yield (in Cc1ccccc1): 0.12
photoluminescence quantum yield (in O=P(c1ccccc1)(c1ccccc1)c1cccc(-c2cc(-n3c4ccccc4c4ccccc43)cc(-n3c4ccccc4c4ccccc43)c2)n1): 0.33

Structure (SMILES): c1ccc2cc(-c3c4ccccc4c(-c4ccc(-c5ccc(-n6c7ccccc7c7ccccc76)cc5)cc4)c4ccccc34)ccc2c1
photoluminescence quantum yield (in ClCCl): 0.7

Structure (SMILES): CN(C)c1ccc(C(=Cc2ccc(C#N)cc2)c2ccc(N(C)C)cc2)cc1
photoluminescence quantum yield (in C1CCOC1): 0.056

Structure (SMILES): Cc1cc(C)c(C2=C3C=C(c4ccc(C(C)(C)C)cc4)C(c4ccc(C(C)(C)C)cc4)=[N+]3[B-](F)(F)n3c2cc(-c2ccc(C(C)(C)C)cc2)c3-c2ccc(C(C)(C)C)cc2)c(C)c1
photoluminescence quantum yield (in C1CCCCC1): 0.77
photoluminescence quantum yield (in C1CCOC1): 0.96
photoluminescence quantum yield (in CC#N): 0.62
photoluminescence quantum yield (in Cc1ccccc1): 0.78
photoluminescence quantum yield (in ClCCl): 0.74

Structure (SMILES): CCCCc1cc2cccc[n+]2[b-]2c(-c3cccc4[b-]3[n+]3ccccc3cc4CCCC)cccc21
photoluminescence quantum yield (in C1CCCCC1): 0.03

Structure (SMILES): CC1=[N+]2C(=C(c3ccccc3)c3ccc(C)n3[B-]2(F)F)C=C1
photoluminescence quantum yield (in C1CCCCC1): 0.29
photoluminescence quantum yield (in C1CCOC1): 0.25
photoluminescence quantum yield (in CC#N): 0.17
photoluminescence quantum yield (in CCOC(C)=O): 0.25
photoluminescence quantum yield (in CO): 0.19
photoluminescence quantum yield (in Cc1ccccc1): 0.42
photoluminescence quantum yield (in ClC(Cl)Cl): 0.38
